Results from BindingDB's records for patent US10227350 (Gilead Sciences, 2019).

Target: Phosphatidylinositol 4,5-bisphosphate 3-kinase catalytic subunit beta isoform (Homo sapiens, UniProt P42338)
Experiment: TR-FRET Assay
Method: Class I PI3K isoforms were expressed and purified as heterodimeric recombinant proteins. All assay reagents and buffers for the TR-FRET assay were purchased from Millipore. […] The compounds were added to the assay solution and incubated for 30 minutes at 25° C.

Sequence of Phosphatidylinositol 4,5-bisphosphate 3-kinase catalytic subunit beta isoform (P42338 whole entry, canonical isoform): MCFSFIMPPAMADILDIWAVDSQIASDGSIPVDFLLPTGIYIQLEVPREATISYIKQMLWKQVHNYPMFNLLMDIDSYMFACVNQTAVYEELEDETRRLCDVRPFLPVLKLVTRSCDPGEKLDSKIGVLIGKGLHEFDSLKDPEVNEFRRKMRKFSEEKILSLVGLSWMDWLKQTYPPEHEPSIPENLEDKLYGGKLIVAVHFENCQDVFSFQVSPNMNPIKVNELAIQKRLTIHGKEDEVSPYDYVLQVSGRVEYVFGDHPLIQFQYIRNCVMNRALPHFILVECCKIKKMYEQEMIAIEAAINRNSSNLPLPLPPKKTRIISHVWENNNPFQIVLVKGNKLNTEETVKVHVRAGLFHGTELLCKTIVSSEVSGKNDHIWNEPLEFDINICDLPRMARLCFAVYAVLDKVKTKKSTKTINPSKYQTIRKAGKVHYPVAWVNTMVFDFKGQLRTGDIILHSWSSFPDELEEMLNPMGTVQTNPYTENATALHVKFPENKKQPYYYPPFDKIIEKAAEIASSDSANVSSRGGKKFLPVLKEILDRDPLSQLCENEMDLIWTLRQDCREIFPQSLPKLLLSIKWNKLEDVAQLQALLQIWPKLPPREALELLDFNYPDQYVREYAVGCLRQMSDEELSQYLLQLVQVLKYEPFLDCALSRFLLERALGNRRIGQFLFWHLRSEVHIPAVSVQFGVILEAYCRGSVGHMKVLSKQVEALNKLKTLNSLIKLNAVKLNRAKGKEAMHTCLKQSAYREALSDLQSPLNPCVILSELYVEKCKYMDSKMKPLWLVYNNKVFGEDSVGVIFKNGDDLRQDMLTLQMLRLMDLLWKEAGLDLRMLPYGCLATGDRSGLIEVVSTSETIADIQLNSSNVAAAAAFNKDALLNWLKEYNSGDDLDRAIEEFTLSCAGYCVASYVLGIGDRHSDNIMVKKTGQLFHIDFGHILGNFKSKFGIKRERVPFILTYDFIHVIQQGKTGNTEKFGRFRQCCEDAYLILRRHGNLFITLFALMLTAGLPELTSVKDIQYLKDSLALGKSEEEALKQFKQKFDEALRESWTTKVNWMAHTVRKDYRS

Structure (SMILES)	IC50
Cc1cc(-c2cc(-c3nnc[nH]3)c3nc(C)n(-c4ccnc5c(Cl)cccc45)c3c2)ccn1 [US10227350, Compound 40]	5 nM
CCCc1nc2c(-c3nnc[nH]3)cc(-c3ccnc(N)c3F)cc2n1-c1ccnc2c(Cl)ccc(F)c12 [US10227350, Compound 84]	4 nM
